Assay results: the CheMixHub drug solubility set

Test: xn = mol fraction of the nth substance listed, in the solute-free solvent

CC(=O)Nc1ccc(OC(=O)c2ccccc2OC(C)=O)cc1 + CC(C)O + O
solubility (g/100 g solution)
Conditions | 278.15 K | 283.15 K | 288.15 K | 293.15 K | 298.15 K | 303.15 K | 308.15 K | 313.15 K | 318.15 K
x2 = 0.03225 | 0.00278 | 0.00407 | 0.0057 | 0.00819 | 0.0115 | 0.0161 | 0.0217 | 0.0296 | 0.0399
x2 = 0.06974 | 0.0072 | 0.0102 | 0.0142 | 0.0195 | 0.0268 | 0.0367 | 0.0481 | 0.0636 | 0.0846
x2 = 0.1139 | 0.015 | 0.0212 | 0.0289 | 0.0402 | 0.0537 | 0.0718 | 0.0958 | 0.126 | 0.162
x2 = 0.1666 | 0.0246 | 0.0342 | 0.0466 | 0.0633 | 0.0855 | 0.114 | 0.148 | 0.195 | 0.252
x2 = 0.2307 | 0.0358 | 0.0489 | 0.0678 | 0.0921 | 0.124 | 0.165 | 0.217 | 0.285 | 0.371
x2 = 0.3103 | 0.0475 | 0.0662 | 0.0897 | 0.123 | 0.163 | 0.215 | 0.29 | 0.374 | 0.488
x2 = 0.4117 | 0.0571 | 0.0787 | 0.109 | 0.148 | 0.197 | 0.26 | 0.341 | 0.445 | 0.574
x2 = 0.5454 | 0.0663 | 0.0911 | 0.125 | 0.167 | 0.221 | 0.295 | 0.381 | 0.494 | 0.642
x2 = 0.7297 | 0.0717 | 0.097 | 0.131 | 0.177 | 0.239 | 0.315 | 0.412 | 0.525 | 0.68

CS(=O)(=O)c1ccc(C(O)C(CF)NC(=O)C(Cl)Cl)cc1 (configuration not stated) + CO + O
solubility (g/100 g solution)
Conditions | 278.15 K | 283.15 K | 288.15 K | 293.15 K | 298.15 K | 303.15 K | 308.15 K | 313.15 K | 318.15 K
x2 = 0.05881 | 0.163 | 0.211 | 0.278 | 0.358 | 0.449 | 0.571 | 0.711 | 0.881 | 1.09
x2 = 0.1233 | 0.379 | 0.485 | 0.609 | 0.762 | 0.939 | 1.15 | 1.41 | 1.71 | 2.06
x2 = 0.1942 | 0.707 | 0.878 | 1.08 | 1.31 | 1.58 | 1.9 | 2.27 | 2.68 | 3.17
x2 = 0.2727 | 1.06 | 1.32 | 1.6 | 1.93 | 2.31 | 2.78 | 3.28 | 3.88 | 4.53
x2 = 0.3599 | 1.47 | 1.83 | 2.25 | 2.71 | 3.25 | 3.88 | 4.58 | 5.45 | 6.34
x2 = 0.4576 | 1.92 | 2.4 | 2.94 | 3.6 | 4.3 | 5.17 | 6.17 | 7.3 | 8.52
x2 = 0.5675 | 2.52 | 3.12 | 3.82 | 4.64 | 5.63 | 6.76 | 7.98 | 9.5 | 11
x2 = 0.6923 | 3.16 | 3.96 | 4.85 | 5.92 | 7.07 | 8.44 | 10.1 | 11.9 | 13.7
x2 = 0.835 | 3.91 | 4.85 | 5.98 | 7.23 | 8.65 | 10.3 | 12.2 | 14.2 | 16.5
